15 molecules from patent US20250215029A1 (Recludix Pharma, Inc., priority 2022, published 2025) can be followed below.

The structures appear in SMILES notation. pIC50: −log10 of the molar value.

One assay has as its target T1, pY641-STAT6 in PBMC (Homo sapiens, UniProt P42226).
T1 construct: Cryopreserved Peripheral Blood Mononuclear Cells (PBMC) are from AllCells; host or cells: cryopreserved PBMC
T1 sequence (P42226 1-847): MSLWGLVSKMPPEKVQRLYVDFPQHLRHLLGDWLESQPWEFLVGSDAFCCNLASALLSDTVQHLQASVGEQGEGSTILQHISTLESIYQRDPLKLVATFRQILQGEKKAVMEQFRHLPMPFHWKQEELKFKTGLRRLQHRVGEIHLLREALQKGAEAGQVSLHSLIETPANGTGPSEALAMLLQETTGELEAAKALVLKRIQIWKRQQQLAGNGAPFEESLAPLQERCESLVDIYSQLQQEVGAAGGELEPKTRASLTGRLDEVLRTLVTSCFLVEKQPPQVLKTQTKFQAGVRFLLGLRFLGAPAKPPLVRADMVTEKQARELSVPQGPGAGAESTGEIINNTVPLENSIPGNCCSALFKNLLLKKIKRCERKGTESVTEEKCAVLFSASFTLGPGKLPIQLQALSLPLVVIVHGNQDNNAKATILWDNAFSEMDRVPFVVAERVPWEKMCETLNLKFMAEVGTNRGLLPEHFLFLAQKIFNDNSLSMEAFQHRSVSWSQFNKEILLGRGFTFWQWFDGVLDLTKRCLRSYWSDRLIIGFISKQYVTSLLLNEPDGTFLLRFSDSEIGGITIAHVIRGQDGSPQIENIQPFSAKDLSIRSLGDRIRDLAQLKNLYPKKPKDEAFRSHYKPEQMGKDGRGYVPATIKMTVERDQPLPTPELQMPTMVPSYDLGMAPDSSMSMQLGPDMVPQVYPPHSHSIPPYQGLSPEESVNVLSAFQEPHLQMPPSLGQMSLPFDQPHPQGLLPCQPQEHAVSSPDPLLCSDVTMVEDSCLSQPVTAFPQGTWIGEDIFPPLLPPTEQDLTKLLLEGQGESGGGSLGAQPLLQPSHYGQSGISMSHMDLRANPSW
Kind of assay: MSD-pSTAT-PBMC Assay (pSTAT6, IL-4 stimulated). Conditions: PBMC, compound 3 hrs, then 1 ng/mL IL-4 for 10 min; Table 115; read-out: STAT6. The class given is cell-based. In short, it runs like this:
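Thawed human PBMC rested overnight in IMDM/10% FBS, then got compound for 3 hrs before a 10 min cytokine pulse: 1 ng/mL IL-4 for pSTAT6, 10 ng/mL IL-6 for pSTAT3. Lysates went to MSD sandwich capture on total STAT6 or STAT3 with phospho-specific detection. IC50 came from background-subtracted, DMSO-normalized signal.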
As for `CCCOC(=O)[C@H](C)NP(=O)(Oc1ccccc1)[C@@H](F)c1ccc2sc(C(=O)N[C@H]3CCCC[C@H]4CC[C@@H](C(=O)N5C[C@H](c6cccc(Cl)c6)[C@@H](C#N)C56CC6)N4C3=O)cc2c1` (stereo partly drawn) [Compound 344], the pIC50 was above 7.00.

For `CCCOC(=O)[C@H](C)NP(=O)(Oc1ccccc1)[C@@H](F)c1ccc2sc(C(=O)N[C@H]3CCCC[C@H]4CC[C@@H](C(=O)N5C[C@H](c6cccc(Cl)c6)[C@@H](C#N)C56CC6)N4C3=O)cc2c1` (stereo partly drawn) [Compound 345], the pIC50 was above 7.00.

The assay is the same for the next values; noted with them: STAT6, PBMC, compound 3 hrs, then 1 ng/mL IL-4 for 10 min; Table 115.
`CCCOC(=O)[C@H](C)NP(=O)(Oc1ccccc1)[C@@H](F)c1ccc2sc(C(=O)N[C@H]3CCCC[C@H]4CC[C@@H](C(=O)N5C(=O)N(c6ccc(C)nc6)C(=O)C56CC6)N4C3=O)cc2c1` (stereo partly drawn) [Compound 328, propyl (((R)-fluoro(2-(((3S,6S,10aS)-3-(6-(6-methylpyridin-3-yl)-5,7-dioxo-4,6-diazaspiro[2.4]heptane-4-carbonyl)-5-oxodecahydropyrrolo [1,2-a]azocin-6-yl)carbamoyl)benzo [b]thiophen-5-yl)methyl)(phenoxy)phosphoryl)-L-alaninate]: the pIC50 is 6.00 to 7.00.

In turn, `CCCOC(=O)[C@H](C)NP(=O)(Oc1ccccc1)[C@@H](F)c1ccc2sc(C(=O)N[C@H]3CCCC[C@H]4CC[C@@H](C(=O)N5C(=O)N(c6ccc(OC)nc6)C(=O)C56CC6)N4C3=O)cc2c1` (stereo partly drawn) [Compound 329, propyl (((R)-fluoro(2-(((3S,6S,10aS)-3-(6-(6-methoxypyridin-3-yl)-5,7-dioxo-4,6-diazaspiro[2.4]heptane-4-carbonyl)-5-oxodecahydropyrrolo [1,2-a]azocin-6-yl)carbamoyl)benzo [b]thiophen-5-yl)methyl)(phenoxy)phosphoryl)-L-alaninate] showed a pIC50 below 5.52.

Consider `CCCOC(=O)[C@H](C)NP(=O)(Oc1ccccc1)[C@@H](F)c1ccc2sc(C(=O)N[C@H]3CCCC[C@H]4CC[C@@H](C(=O)N5C(=O)N(c6cncc(C(F)(F)F)c6)C(=O)C56CC6)N4C3=O)cc2c1` (stereo partly drawn) [Compound 330, propyl (((R)-(2-(((3S,6S,10aS)-3-(5,7-dioxo-6-(5-(trifluoromethyl)pyridin-3-yl)-4,6-diazaspiro[2.4]heptane-4-carbonyl)-5-oxodecahydropyrrolo [1,2-a]azocin-6-yl)carbamoyl)benzo [b]thiophen-5-yl)fluoromethyl) (phenoxy)phosphoryl)-L-alaninate], for which the pIC50 was below 5.52.

In turn, `CCCOC(=O)[C@H](C)NP(=O)(Oc1ccccc1)[C@@H](F)c1ccc2sc(C(=O)N[C@H]3CCCC[C@H]4CC[C@@H](C(=O)N5C(=O)N(c6cncc(OC)c6)C(=O)C56CC6)N4C3=O)cc2c1` (stereo partly drawn) [Compound 331, propyl (((R)-fluoro(2-(((3S,6S,10aS)-3-(6-(5-methoxypyridin-3-yl)-5,7-dioxo-4,6-diazaspiro[2.4]heptane-4-carbonyl)-5-oxodecahydropyrrolo [1,2-a]azocin-6-yl)carbamoyl)benzo [b]thiophen-5-yl)methyl)(phenoxy)phosphoryl)-L-alaninate] gave a pIC50 of 5.52 to 6.00.

Consider `CCCOC(=O)[C@H](C)NP(=O)(Oc1ccccc1)[C@@H](F)c1ccc2sc(C(=O)N[C@H]3CCCC[C@H]4CC[C@@H](C(=O)N5C(=O)N(c6ccc(C(F)F)nc6)C(=O)C56CC6)N4C3=O)cc2c1` (stereo partly drawn) [Compound 332, propyl (((R)-(2-(((3S,6S,10aS)-3-(6-(6-(difluoromethyl)pyridin-3-yl)-5,7-dioxo-4,6-diazaspiro[2.4]heptane-4-carbonyl)-5-oxodecahydropyrrolo [1,2-a]azocin-6-yl)carbamoyl)benzo [b]thiophen-5-yl)fluoromethyl) (phenoxy)phosphoryl)-L-alaninate], for which the pIC50 is below 5.52.

Consider `CCCOC(=O)[C@H](C)NP(=O)(Oc1ccccc1)[C@@H](F)c1ccc2sc(C(=O)N[C@H]3CCCC[C@H]4CC[C@@H](C(=O)N5C(=O)N(c6cncc(C(F)F)c6)C(=O)C56CC6)N4C3=O)cc2c1` (stereo partly drawn) [Compound 333, propyl (((R)-(2-(((3S,6S,10aS)-3-(6-(5-(difluoromethyl)pyridin-3-yl)-5,7-dioxo-4,6-diazaspiro[2.4]heptane-4-carbonyl)-5-oxodecahydropyrrolo [1,2-a]azocin-6-yl)carbamoyl)benzo [b]thiophen-5-yl)fluoromethyl) (phenoxy)phosphoryl)-L-alaninate], for which the pIC50 is below 5.52.

`CCCOC(=O)[C@H](C)NP(=O)(Oc1ccccc1)[C@@H](F)c1ccc2sc(C(=O)N[C@H]3CCCC[C@H]4CC[C@@H](C(=O)N5C(=O)N(c6cnccc6C)C(=O)C56CC6)N4C3=O)cc2c1` (stereo partly drawn) [Compound 334, propyl (((R)-fluoro(2-(((3S,6S,10aS)-3-(6-(4-methylpyridin-3-yl)-5,7-dioxo-4,6-diazaspiro[2.4]heptane-4-carbonyl)-5-oxodecahydropyrrolo [1,2-a]azocin-6-yl)carbamoyl)benzo [b]thiophen-5-yl)methyl)(phenoxy)phosphoryl)-L-alaninate] showed a pIC50 above 7.00.

The molecule `CCCOC(=O)[C@H](C)NP(=O)(Oc1ccccc1)[C@@H](F)c1ccc2sc(C(=O)N[C@H]3CCC[C@H]4CC[C@@H](C(=O)N5C[C@@H](c6ccn(C)c(=O)c6)CC56CC6)N4C3=O)cc2c1` (stereo partly drawn) [Compound 346, propyl (((R)-fluoro(2-(((3S,6S,9aS)-3-((R)-6-(1-methyl-2-oxo-1,2-dihydropyridin-4-yl)-4-azaspiro[2.4]heptane-4-carbonyl)-5-oxooctahydro-1H-pyrrolo[1,2-a]azepin-6-yl)carbamoyl)benzo [b]thiophen-5-yl)methyl)(phenoxy)phosphoryl)-L-alaninate] gave a pIC50 above 7.00.

As for `CCCOC(=O)[C@H](C)NP(=O)(Oc1ccccc1)[C@H](F)c1ccc2ccc(C(=O)N[C@H]3CCCC[C@H]4CC[C@@H](C(=O)N5C[C@H](c6ccccc6)[C@@H](C#N)C56CC6)N4C3=O)cc2c1` (stereo partly drawn) [Compound 347, propyl (((S)-(7-(((3S,6S,10aS)-3-((6S,7R)-7-cyano-6-phenyl-4-azaspiro[2.4]heptane-4-carbonyl)-5-oxodecahydropyrrolo [1,2-a]azocin-6-yl)carbamoyl)naphthalen-2-yl)fluoromethyl) (phenoxy)phosphoryl)-L-alaninate], the pIC50 was above 7.00.

Regarding `COCCOC(=O)[C@H](COC)NP(=O)(Oc1ccccc1)[C@H](F)c1ccc2sc(C(=O)N[C@H]3CCC[C@H]4CC[C@@H](C(=O)N5C[C@H](c6ccccc6)[C@@H](C#N)C56CC6)N4C3=O)cc2c1` (stereo partly drawn) [Compound 348, 2-methoxyethyl N-(((S)-(2-(((3S,6S,9aS)-3-((6S,7R)-7-cyano-6-phenyl-4-azaspiro[2.4]heptane-4-carbonyl)-5-oxooctahydro-1H-pyrrolo[1,2-a]azepin-6-yl)carbamoyl)benzo [b]thiophen-5-yl)fluoromethyl) (phenoxy)phosphoryl)-O-methyl-L-serinate], the pIC50 was above 7.00.

As for `CCCOC(=O)[C@H](C)NP(=O)(Oc1ccccc1)[C@H](F)c1ccc2sc(C(=O)N[C@H]3C[C@@H](C)C[C@H]4CC[C@@H](C(=O)N5C[C@H](c6ccccc6)[C@@H](C#N)C56CC6)N4C3=O)cc2c1` (stereo partly drawn) [Compound 349, propyl (((S)-(2-(((3S,6S,8R,9aR)-3-((6S,7R)-7-cyano-6-phenyl-4-azaspiro[2.4]heptane-4-carbonyl)-8-methyl-5-oxooctahydro-1H-pyrrolo[1,2-a]azepin-6-yl)carbamoyl)benzo [b]thiophen-5-yl)fluoromethyl) (phenoxy)phosphoryl)-L-alaninate], the pIC50 was above 7.00.

Turning to `C[C@H](NP(=O)(Oc1ccccc1)[C@H](F)c1ccc2sc(C(=O)N[C@H]3CCC[C@H]4CC[C@@H](C(=O)N5C[C@H](c6ccccc6)[C@@H](C#N)C56CC6)N4C3=O)cc2c1)C(=O)OC1CC1` (stereo partly drawn) [Compound 350, cyclopropyl (((S)-(2-(((3S,6S,9aS)-3-((6S,7R)-7-cyano-6-phenyl-4-azaspiro[2.4]heptane-4-carbonyl)-5-oxooctahydro-1H-pyrrolo[1,2-a]azepin-6-yl)carbamoyl)benzo [b]thiophen-5-yl)fluoromethyl) (phenoxy)phosphoryl)-L-alaninate], the pIC50 was above 7.00.

`COCCOC(=O)[C@H](C)NP(=O)(Oc1ccccc1)[C@H](F)c1ccc2sc(C(=O)N[C@H]3CCC[C@H]4CC[C@@H](C(=O)N5C[C@H](c6ccccc6)[C@@H](C#N)C56CC6)N4C3=O)cc2c1` (stereo partly drawn) [Compound 351, 2-methoxyethyl (((S)-(2-(((3S,6S,9aS)-3-((6S,7R)-7-cyano-6-phenyl-4-azaspiro[2.4]heptane-4-carbonyl)-5-oxooctahydro-1H-pyrrolo[1,2-a]azepin-6-yl)carbamoyl)benzo [b]thiophen-5-yl)fluoromethyl) (phenoxy)phosphoryl)-L-alaninate] had a pIC50 above 7.00.
